Columns and labels:
[1] = Octanol-water partitioning coefficients of cation paired hyaluronic acid (HA); format: physicochemical; settings: cation paired with HA
Method: 5 mL ddH2O may be mixed overnight at room temperature with 5 mL octanol. A complex containing a macromolecular anion complexed with sodium ions or with cations with alkyl chains is then added to the mixture and again allowed to mix overnight at room temperature in the dark. After overnight incubation, the solution is centrifuged to separate the octanol layer and water layer. The concentration of the macromolecular anion present in each layer is quantified by UV-Vis spectroscopy, or fluorescence spectroscopy, using, for example, a SAFIRE, XFLUOR4, V4.50 microplate reader (Tecan Group Ltd, Morrisville, N.Y.). For detection of siRNA, the fluorescence detection may be performed at an excitation of 485 nm and an emission of 520 nm, and the method may be validated for linearity, accuracy, and precision. Log Po/w may be calculated as the logarithm of the ratio of fluorescence in the octanol layer compared to the water layer.
Cation paired HA was prepared according to methods described in Example 1.

HEKa cells = experiment: Biocompatibility in cell culture, MTT Cell Proliferation Assay; format: cell-based, human; settings: equal concentrations, 4 hours; differences not statistically significant (p >0.05)
Method: All cell culture materials were acquired from Life Technologies (Grand Island, N.Y.). Human adult epidermal keratinocytes were cultured in EpiLife Medium supplemented with Human Keratinocyte Growth Supplement, 25 U/mL penicillin, 25 μg/mL streptomycin, and 50 μg/mL neomycin. Cultures were grown at 37° C. with 5% CO2.
Cells were seeded in a 96-well microplate (Corning Inc., Corning, N.Y.) and were allowed to attach and proliferate. Once cells reached ˜80% confluency, the media was removed and FAM-siRNA, robed-FAM-siRNA, or benzyl dimethyl alkyl ammonium chloride salts in media was added. Media alone was used as a control. Cells were incubated with test solution for 4 hours at 37° C. and 5% CO2. After incubation, test solutions were removed, cells were washed with HBSS, and fresh media was added to each well. Cells were allowed to proliferate overnight before being assessed for viability using the MTT Cell Proliferation Assay (ATCC, Manassas, Va.). Viability was determined according to the manufacturer's recommended protocol using a SAFIRE, XFLUOR4, V4.50 microplate reader (Tecan Group Ltd, Morrisville, N.Y.).

[2] = chloride salt; Hansch et al. 1995; cited from earlier work

| Structure (SMILES) | LogPo/w [1] | toxicity of free salts versus robed with siRNAs (HEKa cells) | Log Po/w, Chloride [2] |
| --- | --- | --- | --- |
| C[N+](C)(C)CCO | −3.32 | – | – |
| CCCCCCCCCCCCCC[N+](C)(C)Cc1ccccc1 [BDTA chloride, benzyl dimethyl tetradecyl ammonium] | – | more toxic as free salts | 1.81^2 |
| CCCCCCCCCCCCCCCCCC[N+](C)(C)Cc1ccccc1 [BDSA chloride, benzyl dimethyl stearyl ammonium] | – | more toxic as free salts | 3.23^3 |
| CCCCCCCC[N+](C)(C)Cc1ccccc1 [BDOA chloride, benzyl dimethyl octyl ammonium] | – | more toxic as free salts | – |
| CCCCCCCCCCCCCC[N+](C)(C)C.[Br-] | 2.14 | – | – |

Source: patent publication US20210162050A1, “TOPICAL FORMULATIONS BASED ON IONIC SPECIES FOR SKIN TREATMENT” (The Regents of the University of California, priority 2016, published 2021)
